Assay results: US12616704B2, “Cannabichromene formulation for pain management” (Zyus Life Sciences Inc., priority 2020, dated 2026)

Assays:
Format in all cases: in vivo, C57BL/6J mice
[1] = test system: Oxaliplatin-induced cool allodynia; assay: Acetone Cooling Test (ACT) in oxaliplatin-induced polyneuropathy (OIPN) model; details: CBC 20 mg/kg p.o., Duloxetine 25 mg/kg i.p.
Procedure: Model Induction—Mouse Oxaliplatin-induced polyneuropathy (OIPN) model was induced over a three-week period. The day of first Oxaliplatin (OXP) injection is referred to as day 0 (DO). OXP was administered as six separate intraperitoneal injections at 4.5-mg/kg (10 ml/kg, i.p.) to Groups 2, 3, and 4 on DO, D4, D8, D12, D16, and D20. The cumulative OXP dose was thus 27 mg/kg. The in-life procedures, such as observations, tests, and/or measurements were performed by Charles River Discovery Services with blinded methods. The mice were distributed into 4 groups (n=8 for Vehicle Control; n=10 OXP Control; n=20 CBC; n=15 Duloxetine).
Treatments—Following exposure to OXP for 20 days, Groups 3 and 4 were treated with CBC (20 mg/kg, p.o.) and Duloxetine (25 mg/kg, i.p.), respectively, for 10 consecutive days. In a similar regimen Groups 1 and 2 (Vehicle Control and OXP-Vehicle Control, respectively) received a corresponding volume of 5% glucose solution at an administration volume of 10 mL/kg.
Acetone Cooling Test (ACT) —To produce a measurable cooling sensation, 10-15 μL of acetone was applied onto the medial area of the plantar hind paw with a 0.5 ml insulin syringe. Responses of a mouse to acetone were monitored for 20 s, and a score given based on a four-point scale (0-3 points), according to the response intensity, continuation, and briskness. The higher the score, the greater the cool allodynia sensed by the mouse.
Within one test timepoint, a total of 3 trials were performed per paw with a minimum gap of 5 min between testing. The three individual scores were added up to obtain a single score over a cumulative period of 60 s. Thus, for one test, the minimum score of one paw is 0 (no cool allodynia), while the maximum possible score is 9 (intensive cool allodynia). The total scores for the left and right paws were averaged to accomplish a single result value per mouse at each timepoint.
The Acetone Cooling Test was performed prior to OXP administration (Baseline), following the last OXP injection (D21), one day after the first CBC, Duloxetine, or Vehicle treatment (D22), and after a 10-day daily dosing of CBC, Duloxetine, or Vehicle treatment (D31). Taken together, the ACT was used to assess chemotherapy-induce cool allodynia as stated in the schedule:
On D22: At 60 min after the first Vehicle/CBC dose and 120 min after Dulx dose.
On D31: At 60 min after the last Vehicle/CBC and 120 min after Dulx dose.

[2] = Welfare observations in OIPN study; details: Duloxetine 25 mg/kg i.p., OIPN mice
Excerpt: Seven mice were disqualified from further study due to showing too mild cool allodynia.

[3] = Body weight in OIPN study; details: OIPN mice; CBC 20 mg/kg p.o., Duloxetine 25 mg/kg i.p.
Procedure: Body Weight—Animal body weights were measured before assigning the treatment groups and then on each day of the study. The last body weight measurement was performed upon endpoint sampling. Terminal body weights were not collected from animals found dead or euthanized moribund.

CNCC[C@H](Oc1cccc2ccccc12)c1cccs1 [Duloxetine, reference compound]
ACT score compared with OXP-Vehicle control ([1]; D22, acute single dose): statistically significant and comparable reduction in cool allodynia
ACT score compared with OXP-Vehicle control ([1]; D31, chronic repeated dosing): maintained a significant reduction in cool allodynia
ACT score, D31 vs. D21 ([1]; within group, 10-day repeated dosing): significant reduction of cool allodynia
ACT score, reversion of cool allodynia D22 vs. D21 pre-treatment: p ([1]; within group, single dose): < 0.01
share of the group with adverse effects (enlarged staring eyes and clearly decreased activity) [2]: 30%
body weight development from D22 onwards [3]: slower increase in body weight
